Measured values from PMC5430874 (Scientific Reports, 2017).

Assays:
[1] = system: rats; parameters: method as in PMID 26349500; settings: cited from earlier work
[2] = biological target: T1, GPR139 E105Q3x29 (Homo sapiens, UniProt Q6DWJ6, E105Q); assay: Fluo-4 Ca2+-assay, GPR139 mutant E105Q; type: cell-based
T1 construct: mGluR5 signal peptide (N); expressed in transfected cells; host or cells: HEK293
T1 sequence (Q6DWJ6 2-353 E105Q limits assumed): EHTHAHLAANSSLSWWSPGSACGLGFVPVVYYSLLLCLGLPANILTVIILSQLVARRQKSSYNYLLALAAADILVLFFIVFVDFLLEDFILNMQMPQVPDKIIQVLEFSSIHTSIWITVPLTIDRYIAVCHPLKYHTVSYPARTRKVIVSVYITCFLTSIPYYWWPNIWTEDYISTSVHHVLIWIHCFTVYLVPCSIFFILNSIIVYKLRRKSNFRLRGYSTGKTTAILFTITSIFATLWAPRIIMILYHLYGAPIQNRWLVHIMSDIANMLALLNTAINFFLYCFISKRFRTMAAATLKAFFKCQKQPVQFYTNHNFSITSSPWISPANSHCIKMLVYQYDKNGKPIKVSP
Source text: To study the influence of specific amino acids in the predicted binding pocket on receptor function, the desired mutations were introduced into an N-terminally c-myc-tagged wild type human GPR139 (NM_001002911.3) in the pEGFP-N1 vector (BD Biosciences)[32], [33]. As previously described, these plasmids carry the signal peptide of mGluR5 to promote cell surface expression followed by a c-myc epitope to enable detection of total and surface expression by ELISA, followed by an engineered MluI and NotI site for easy insertion of the receptor of interest. Furthermore, the start-codon in the GPR139 sequence was deleted to ensure c-myc-tagging. […]
The Ca^2+ measurements were preformed using the Fluo-4 NW Calcium Assay Kit (Invitrogen, Molecular Probes, F36206) as previously described. […] Intracellular calcium changes were recorded as indicated on either a NOVOstar (BMG Labtech) at 37 °C with an excitation filter of 485 nm and an emission filters 520 nm or a FlexStation 3 Benchtop Multi-Mode Microplate Reader (Molecular Devices) at 37 °C with an excitation wavelength of 485 nm and emission of 525 nm.
All pharmacological data have been analyzed by using Prism 6.0 (GraphPad Software Inc., San Diego). […] Changes in potency (pEC50) and span of myc-GPR139(WT) in comparison to untagged GPR139(WT) was statistically analyzed with a paired t-test and significance was accepted at p < 0.05. […]

SMILES | spontaneous locomotion activity [1] | EC50 ([2]; E105Q mutant) | Emax ([2]; E105Q, normalized to buffer (0%) and 8 µM 1a (100%))
C[C@@H](NC(=O)CNC(=O)c1cccc(Cl)c1)c1ccccc1 (racemic) [Compound 7c] | decreased spontaneous locomotion activity | – | –
COc1cc(OC)cc(C(=O)NNC(=O)Nc2cccc3ccccc23)c1 [Compound 1a] | – | 145 nM | 177 ± 36%
